Measurements: article PMC7906094 (Cancer chemotherapy and pharmacology, 2020)

Assays:
[1] = system: primary human hepatocytes; conditions: human hepatocytes, tenofovir 0.5 μM, emtricitabine 7.2 μM; for impact of co-incubation on triapine half-life: triapine 6 μM
[2] = system: human liver microsomal glucuronyltransferases; assay: Triapine metabolism by glucuronosyltransferases in human liver microsomes; assay type: in vitro ADME; conditions: human liver microsomes + UDPGA, 120-minute incubation
[3] = system: primary human hepatocytes; assay: Triapine metabolism in human hepatocytes with enzyme inhibitors; assay type: in vitro ADME; conditions: in the presence of non-isoform specific CYP inhibitor N-benzyl imidazole
[4] = biological target: CYP2C19 (Homo sapiens, UniProt P33261); assay type: in vitro ADME; conditions: triapine 6 μM, human liver microsomes
CYP2C19, sequence (P33261 whole entry): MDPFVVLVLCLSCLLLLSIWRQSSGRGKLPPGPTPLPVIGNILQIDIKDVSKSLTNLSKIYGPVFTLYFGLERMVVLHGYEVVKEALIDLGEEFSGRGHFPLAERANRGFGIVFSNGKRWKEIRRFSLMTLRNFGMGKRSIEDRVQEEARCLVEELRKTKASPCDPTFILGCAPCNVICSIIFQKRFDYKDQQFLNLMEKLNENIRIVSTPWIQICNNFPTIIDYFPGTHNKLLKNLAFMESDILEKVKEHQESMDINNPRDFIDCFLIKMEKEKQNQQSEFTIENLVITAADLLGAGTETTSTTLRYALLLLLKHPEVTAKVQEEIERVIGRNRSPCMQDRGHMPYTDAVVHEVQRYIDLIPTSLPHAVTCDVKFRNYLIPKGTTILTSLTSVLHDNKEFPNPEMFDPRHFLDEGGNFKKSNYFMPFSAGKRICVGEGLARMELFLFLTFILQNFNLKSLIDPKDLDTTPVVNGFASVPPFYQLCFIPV

[5] = human, primary human hepatocytes
[6] = system: monoamine oxidases (MAO)-A/B; assay: Triapine metabolism in human liver mitochondria; assay type: in vitro ADME; conditions: presence or absence of MAO-A and B inhibitors
[7] = system: aldehyde oxidase (AO) and xanthine oxidase (XO); assay: Triapine metabolism in human liver cytosol with high AO/XO activity; assay type: in vitro ADME; conditions: 90-minute incubation, human liver cytosol enriched in AO/XO, presence or absence of raloxifene and allopurinol
[8] = system: human liver microsomes (FMO); assay: Triapine metabolism in human liver microsomes, pH 8.4; assay type: in vitro ADME
[9] = cited from earlier work
[10] = system: human liver microsomes (CYP); assay: Triapine metabolism in human liver microsomes, pH 7.4; assay type: in vitro ADME
[11] = system: CYP; assay: as above; assay type: in vitro ADME; conditions: human, human liver microsomes fortified with NADPH, pH 7.4
[12] = system: CYP3A4; conditions: cited from earlier work
[13] = system: CYP3A4; conditions: cited from earlier work; remark: listed apart in the source
[14] = system: CYP3A5; conditions: cited from earlier work
[15] = system: CYP2C9; conditions: microsomes; cited from earlier work
[16] = system: CYP3A4; conditions: cited from earlier work; remark: listed apart in the source

## C[C@H](Cn1cnc2c(N)ncnc21)OCP(=O)(O)O [tenofovir]
[1]
  impact of co-incubation on %triapine remaining after 48 hours: not significantly different
  impact of co-incubation on triapine AUC0–48h: not significantly different
  impact of co-incubation on triapine half-life: not impacted

## NC(=S)NN=Cc1ncccc1N [Triapine, 3-aminopyridine-2-carboxaldehyde thiosemicarbazone]
[2]
  triapine remaining: 100.3%
[3]
  triapine metabolism in hepatocytes: inhibited
[4]
  increase of metabolism of CYP2C19 probe S-mephenytoin: 20%
[5]
  half-life at 6 μM: 8 h
[6]
  triapine depletion: no triapine depletion
[7]
  metabolism of triapine: did not undergo metabolism
[8]; human liver microsomes, phosphate buffer pH 8.4, fortified with NADPH, within 2 h
  triapine disappeared: 17%
[8]; pH 8.4, control incubation without NADPH
  depletion of triapine: 9%
[8]; pH 8.4, in the presence of FMO inhibitor methimazole (200 μM)
  depletion of triapine: 9%
[9]; after intravenous or oral dosing
  Cmax: ~5 µM
[9]; humans, intravenous administration
  total body clearance: 57.5 ± 25 L/h
[9]; humans, oral administration
  time to reach Cmax: 1.9 ± 1.4 h
[9]; humans
  urinary excretion: minimal
[10]; NADPH-fortified human liver microsomes pH 7.4 in the presence of CYP non-specific inhibitor N-benzyl imidazole (1 mM)
  depletion of triapine: Minimal depletion
[10]; control incubation without either NADPH or microsomes, after 2 h
  triapine remaining intact: > 95%
[11]
  half-life at 6 μM: ~3 h

## C=C[C@H]1C[N@@]2CC[C@H]1C[C@@H]2[C@@H](O)c1ccnc2ccc(OC)cc12 [quinidine]
[12]
  increase of CYP3A4 Vmax for R-warfarin 10-hydroxylation: 5 fold
  increase of CYP3A4 Vmax for S-warfarin 4'-hydroxylation: 2.5 fold
  increase of CYP3A4 mediated 5-, 5'-, and 10-hydroxylation of diclofenac, piroxicam and R-warfarin: 5–7 fold

## Nc1nc(=O)n([C@@H]2CS[C@H](CO)O2)cc1F [emtricitabine]
[1]
  impact of co-incubation on %triapine remaining after 48 hours: not significantly different
  impact of co-incubation on triapine AUC0–48h: not significantly different
  impact of co-incubation on triapine half-life: not impacted

## CCN(CC)CCNC(=O)c1c(C)[nH]c(/C=C2\C(=O)Nc3ccc(F)cc32)c1C [sunitinib]
[13]
  effect on midazolam 1'-hydroxylation by CYP3A4: inhibited
[14]
  effect on midazolam 1'-hydroxylation by CYP3A5: activated

## CC(C)=O [acetone]
[15]
  stimulation of CYP2C9 mediated tolbutamide hydroxylation: 2–3 fold

## CNC(=O)c1cc(Oc2ccc(NC(=O)Nc3ccc(Cl)c(C(F)(F)F)c3)cc2)ccn1 [Sorafenib]
[13]
  effect on midazolam 1'-hydroxylation by CYP3A4: inhibited
[14]
  effect on midazolam 1'-hydroxylation by CYP3A5: activated

## O=C(O)CC(O)(CC(=O)O)C(=O)O [citrate]
[16]
  effect on CYP3A4 catalytic activity: stimulated

## CC#N [acetonitrile]
[15]
  stimulation of CYP2C9 mediated tolbutamide hydroxylation: 2–3 fold
